The target in this experiment is [35S]-TBPS binding, rat brain cortical membranes. Kind of experiment: Steroid inhibition of [35S]-TBPS binding. The conditions noted are these: 3 nM [35S]-TBPS, in the presence of 5 mM GABA. In outline:
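In the presence of […], compounds (DMSO 0.5% final) competed with 3 nM [35S]-TBPS for Sprague-Dawley rat cortical membranes, pH 7.4 phosphate buffer, 90 min, room temperature. Filtration and scintillation counting; specific binding defined by […]; IC50 and maximal inhibition fitted per experiment, averaged as mean ± SEM.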

IC50 data for 25 compounds are collected here from patent US20230322846A9, “NEUROACTIVE STEROIDS AND THEIR METHODS OF USE” (SAGE THERAPEUTICS, INC., priority 2018, published 2023).

Where only a bound is given, the exact number is not on record here.

Usually IC50 stands for the concentration at which inhibition is half-maximal.

With `CCOC[C@@]1(O)CC[C@H]2[C@H](CC[C@@H]3[C@@H]2CC[C@]2(C)[C@@H]([C@@H](C)NS(=O)(=O)c4cccc(C#N)c4)CC[C@@H]32)C1` [Example 69], the IC50 was < 100 nM.

Consider `CC[C@@H](NCc1ccccc1)[C@H]1CC[C@H]2[C@@H]3CC[C@@H]4C[C@@](O)(COC)CC[C@@H]4[C@H]3CC[C@]12C` [Example 214, (3R,5R,8R,9R,10S,13S,14S,17S)-17-((R)-1-(benzylamino)propyl)-3-(methoxymethyl)-13-methylhexadecahydro-1H-cyclopenta[a]phenanthren-3-ol], for which the IC50 lay within 1000 to 10000 nM.

With `COC[C@@]1(O)CC[C@H]2[C@H](CC[C@@H]3[C@@H]2CC[C@]2(C)[C@@H]([C@H](C)Cc4ccc(C(F)(F)F)nc4)CC[C@@H]32)C1` [Example 421], the IC50 was in the range of 100 to 1000 nM.

As for `C[C@@H](NC(=O)c1cccnc1)[C@H]1CC[C@H]2[C@@H]3CC[C@@H]4C[C@](C)(O)CC[C@@H]4[C@H]3CC[C@]12C` [Example 29, N—((R)-1-((3R,5R,8R,9R,10S,13S,14S,17S)-3-hydroxy-3,13-dimethylhexadecahydro-1H-cyclopenta[a]phenanthren-17-yl)ethyl)nicotinamide], the IC50 lay within 100 to 1000 nM.

Turning to `C[C@@]1(O)CC[C@H]2[C@H](CC[C@@H]3[C@@H]2CC[C@]2(C)[C@@H](CN4CC[C@@H](c5ccccc5)C4=O)CC[C@@H]32)C1` [Example 11, (S)-1-(((3R,5R,8R,9R,10S,13S,14S,17S)-3-hydroxy-3,13-dimethylhexadecahydro-1H-cyclopenta[a]phenanthren-17-yl)methyl)-3-phenylpyrrolidin-2-one], the IC50 is 100 to 1000 nM.

`CCOC[C@@]1(O)CC[C@H]2[C@H](CC[C@@H]3[C@@H]2CC[C@]2(C)[C@@H]([C@@H](C)Nc4ccc(-n5ccc(C#N)n5)nc4)CC[C@@H]32)C1` [Example 264]: the IC50 was in the range of 100 to 1000 nM.

`CCOC[C@@]1(O)CC[C@@]2(C)[C@H](CC[C@@H]3[C@@H]2CC[C@]2(C)[C@@H]([C@@H](C)N[C@@H](C)c4ccccc4)CC[C@@H]32)C1` [Example 211]: the IC50 was in the range of 100 to 1000 nM.

In the case of `CCOC(=O)c1cnc(C[C@@H](C)[C@H]2CC[C@H]3[C@@H]4CC[C@@H]5C[C@](C)(O)CC[C@@H]5[C@H]4CC[C@]23C)o1` (stereo in doubt) [Example 456], the IC50 was in the range of 100 to 1000 nM.

Regarding `CCOC[C@@]1(O)CC[C@@]2(C)[C@H](CC[C@@H]3[C@@H]2CC[C@]2(C)[C@@H]([C@@H](C)Cn4ccc(C#N)n4)CC[C@@H]32)C1` [Example 279, 1-((R)-2-((3R,5R,8R,9S,10S,13S,14S,17R)-3-(ethoxymethyl)-3-hydroxy-10,13-dimethylhexadecahydro-1H-cyclopenta[a]phenanthren-17-yl)propyl)-1H-pyrazole-3-carbonitrile], the IC50 is < 100 nM.

Regarding `CCC[C@@]1(O)CC[C@@]2(C)[C@H](CC[C@@H]3[C@@H]2CC[C@]2(C)[C@@H]([C@H](C)Cn4cc(C#N)cn4)CC[C@@H]32)C1` [Example 308, 1-((S)-2-((3R,5R,8R,9S,10S,13S,14S,17R)-3-hydroxy-10,13-dimethyl-3-propylhexadecahydro-1H-cyclopenta[a]phenanthren-17-yl)propyl)-1H-pyrazole-4-carbonitrile], the IC50 is < 100 nM.

Regarding `COC[C@@]1(O)CC[C@H]2[C@H](CC[C@@H]3[C@@H]2CC[C@]2(C)[C@@H]([C@@H](C)n4ncc(C#N)c4N)CC[C@@H]32)C1` [Example 152, 5-amino-1-((R)-1-((3R,5R,8R,9R,10S,13S,14S,17S)-3-hydroxy-3-(methoxymethyl)-13-methylhexadecahydro-1H-cyclopenta[a]phenanthren-17-yl)ethyl)-1H-pyrazole-4-carbonitrile], the IC50 was 1000 to 10000 nM.

For the compound `C[C@H]([C@H]1CC[C@H]2[C@@H]3CC[C@@H]4C[C@](C)(O)CC[C@@H]4[C@H]3CC[C@]12C)n1ccnn1` [Example 159, (3R,5R,8R,9R,10S,13S,14S,17S)-17-((R)-1-(1H-1,2,3-triazol-1-yl)ethyl)-3,13-dimethylhexadecahydro-1H-cyclopenta[a]phenanthren-3-ol], the IC50 was ≥ 10000 nM.

Regarding `CCC[C@@]1(O)CC[C@H]2[C@H](CC[C@@H]3[C@@H]2CC[C@@]2(C)[C@H]3CC[C@]2(O)[C@@H](C)Cn2cc(C#N)cn2)C1` [Example 347, 1-((S)-2-((3R,5R,8R,9R,10S,13S,14S,17S)-3,17-dihydroxy-13-methyl-3-propylhexadecahydro-1H-cyclopenta[a]phenanthren-17-yl)propyl)-1H-pyrazole-4-carbonitrile], the IC50 lay in the range of 1000 to 10000 nM.

Take `CCOC[C@@]1(O)CC[C@H]2[C@H](CC[C@@H]3[C@@H]2CC[C@]2(C)[C@@H]([C@@H](C)N(C)S(=O)(=O)c4ccc(C#N)cc4)CC[C@@H]32)C1` [Example 68, 4-cyano-N—((R)-1-((3R,5R,8R,9R,10S,13S,14S,17S)-3-(ethoxymethyl)-3-hydroxy-13-methylhexadecahydro-1H-cyclopenta[a]phenanthren-17-yl)ethyl)-N-methylbenzenesulfonamide]: the IC50 was < 100 nM.

Turning to `CCC[C@@]1(O)CC[C@@]2(C)[C@H](CC[C@@H]3[C@@H]2[C@@H](O)C[C@]2(C)[C@@H]([C@H](C)Cn4cc(C#N)cn4)CC[C@@H]32)C1` [Example 310, 1-((S)-2-((3R,5R,8S,9S,10S,11S,13S,14S,17R)-3,11-dihydroxy-10,13-dimethyl-3-propylhexadecahydro-1H-cyclopenta[a]phenanthren-17-yl)propyl)-1H-pyrazole-4-carbonitrile], the IC50 was in the range of 100 to 1000 nM.

Consider `CCC[C@@]1(O)CC[C@@]2(C)[C@H](CC[C@H]3[C@@H]4CC[C@H](C(C)Cn5cc(C#N)cn5)[C@@]4(C)CC(=O)[C@@H]32)C1` (stereo in doubt) [Example 340, 1-((R)-2-((3R,5R,8S,9S,10S,13S,14S,17R)-3-hydroxy-10,13-dimethyl-11-oxo-3-propylhexadecahydro-1H-cyclopenta[a]phenanthren-17-yl)propyl)-1H-pyrazole-4-carbonitrile], for which the 50% inhibitory concentration (IC50) is < 100 nM.

`CCC[C@@]1(O)CC[C@H]2[C@H](CC[C@@H]3[C@@H]2CC[C@]2(C)[C@@H]([C@@H](C)Cn4cc(C#N)cn4)[C@H](O)C[C@@H]32)C1` [Example 362, 1-((R)-2-((3R,5R,8R,9R,10S,13S,14S,16R,17R)-3,16-dihydroxy-13-methyl-3-propylhexadecahydro-1H-cyclopenta[a]phenanthren-17-yl)propyl)-1H-pyrazole-4-carbonitrile]: the 50% inhibitory concentration (IC50) lay in the range of 1000 to 10000 nM.

Turning to `C[C@@H](N[C@H](C)[C@H]1CC[C@H]2[C@@H]3CC[C@@H]4C[C@](C)(O)CC[C@@H]4[C@H]3CC[C@]12C)c1ccccc1` [Example 208], the IC50 fell in the range of 100 to 1000 nM.

Consider `CCC[C@@]1(O)CC[C@H]2[C@@H](CC[C@@H]3[C@@H]2CC[C@]2(C)[C@@H]([C@H](C)Cn4nnc(C)n4)CC[C@@H]32)C1` [Example 330, (3R,5S,8R,9R,10S,13S,14S,17R)-13-methyl-17-((S)-1-(5-methyl-2H-tetrazol-2-yl)propan-2-yl)-3-propylhexadecahydro-1H-cyclopenta[a]phenanthren-3-ol], for which the IC50 was ≥ 10000 nM.

Take `CCC[C@@]1(O)CC[C@@]2(C)[C@H](CC[C@@H]3[C@@H]2[C@H](O)C[C@]2(C)[C@@H]([C@@H](C)Cn4cc(C#N)cn4)CC[C@@H]32)C1` [Example 337, 1-((R)-2-((3R,5R,8S,9S,10S,11R,13S,14S,17R)-3,11-dihydroxy-10,13-dimethyl-3-propylhexadecahydro-1H-cyclopenta[a]phenanthren-17-yl)propyl)-1H-pyrazole-4-carbonitrile]: the IC50 was 100 to 1000 nM.

`COC[C@@]1(O)CC[C@H]2[C@@H](CC[C@@H]3[C@@H]2CC[C@]2(C)[C@@H]([C@@H](C)Cn4nnnc4C)CC[C@@H]32)C1` [Example 55, (3R,5S,8R,9R,10S,13S,14S,17R)-3-(methoxymethyl)-13-methyl-17-((R)-1-(5-methyl-1H-tetrazol-1-yl)propan-2-yl)hexadecahydro-1H-cyclopenta[a]phenanthren-3-ol]: the IC50 was < 100 nM.

For the compound `C[C@H](Cn1ccnn1)[C@H]1CC[C@H]2[C@@H]3CC[C@H]4C[C@](C)(O)CC[C@@H]4[C@H]3CC[C@]12C` [Example 60, (3R,5S,8R,9R,10S,13S,14S,17R)-17-((S)-1-(1H-1,2,3-triazol-1-yl)propan-2-yl)-3,13-dimethylhexadecahydro-1H-cyclopenta[a]phenanthren-3-ol], the IC50 lay in the range of 100 to 1000 nM.

As to `C[C@H](Cn1cc(C#N)cn1)[C@H]1CC[C@H]2[C@@H]3CC[C@@H]4C[C@](C)(O)CC[C@@H]4[C@H]3CC[C@]12C` [Example 52, 1-((S)-2-((3R,5R,8R,9R,10S,13S,14S,17R)-3-hydroxy-3,13-dimethylhexadecahydro-1H-cyclopenta[a]phenanthren-17-yl)propyl)-1H-pyrazole-4-carbonitrile], the IC50 is < 100 nM.

On to `CN(C[C@H]1CC[C@H]2[C@@H]3CC[C@@H]4C[C@](C)(O)CC[C@@H]4[C@H]3CC[C@]12C)S(=O)(=O)c1ccccc1` [Example 5, N-(((3R,5R,8R,9R,10S,13S,14S,17S)-3-hydroxy-3,13-dimethylhexadecahydro-1H-cyclopenta[a]phenanthren-17-yl)methyl)-N-methylbenzenesulfonamide], for which the IC50 is < 100 nM.

`CCOC[C@@]1(O)CC[C@@]2(C)[C@H](CC[C@H]3C4CC[C@H]([C@@H](C)Nc5ccc(-n6cc(C#N)cn6)cn5)[C@@]4(C)CC[C@@H]32)C1` (stereo partly shown) [Example 504]: the IC50 fell in the range of 100 to 1000 nM.
